Assay results taken from PMC11220827 (Frontiers in Pharmacology, 2024).
Several values for one entry are separate records, joined by “and”; a condition that tells them apart may be missing. Equal values may be shown once. Read-outs that look alike come from different tables or passages of the source.

Tests used:
HepG2 cells = assay: cells; format: cell-based; settings: for AC50: Homo sapiens, HepG2, 24 h
ERβ Human Estrogen NHR = molecular target: T1, ERβ Human Estrogen NHR (Homo sapiens, UniProt Q92731); assay: biochemical; format: binding
T1 construct: Panlabs (named as assay provider)
T1 sequence (Q92731 whole entry): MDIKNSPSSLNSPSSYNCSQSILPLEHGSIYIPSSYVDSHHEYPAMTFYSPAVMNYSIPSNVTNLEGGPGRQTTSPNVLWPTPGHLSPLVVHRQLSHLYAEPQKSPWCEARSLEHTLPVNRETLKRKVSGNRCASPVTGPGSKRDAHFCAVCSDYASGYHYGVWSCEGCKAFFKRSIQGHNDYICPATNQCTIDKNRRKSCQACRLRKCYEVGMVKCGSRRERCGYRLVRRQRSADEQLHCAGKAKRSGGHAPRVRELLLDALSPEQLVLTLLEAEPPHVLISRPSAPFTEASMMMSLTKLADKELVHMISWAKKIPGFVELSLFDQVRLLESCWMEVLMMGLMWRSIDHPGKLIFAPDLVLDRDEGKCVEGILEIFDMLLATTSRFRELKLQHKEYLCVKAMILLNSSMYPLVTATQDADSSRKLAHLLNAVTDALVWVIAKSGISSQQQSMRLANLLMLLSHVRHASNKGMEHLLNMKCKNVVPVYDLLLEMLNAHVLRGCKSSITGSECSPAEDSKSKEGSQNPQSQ
Description: Relative light units (RLUs) of the CALUX assays were analysed as follows. For agonist assays,
background values (exposure to DMSO only) were subtracted, and the maximum activity of the
resulting in expression of the data as “percentage of maximum reference response”. Graphs were
generated using the statistical software package GraphPad Prism V5.03. Using these graphs, lowest
effect concentrations (LOECs) and PC50 concentrations were determined; LOEC is defined as the
maximum reference compound activity for agonist assays, and 20% of the maximum reference
compound activity for antagonist assays. The PC50 is defined as the concentration where the activity
of the sample equals 50% of the maximum activity of the assay’s reference compound.
the test compound was divided by the amount of estrogens and androgens produced by the solvent
control-exposed cells. A sample was considered ‘active’ if it decreased the hormone production 0.8-
(§10) targets. The list of targets included the original panel of 44 targets (including receptors, ion channels,
(§11) transporters and enzymes) recommended by 4 major pharmaceutical companies as significant
(§12) are considered to represent significant effects (i.e. a “hit”).
(§13) around the control level. For several targets, additional concentration effect assays were conducted to
(§14) determine the potency (IC50). The concentrations tested (in duplicate) ranged between 30 nM and 100

5-HT2B (h) = 5-HT2B (h) (Homo sapiens, UniProt P41595); assay: Pharmacology profiling: 5-HT2B (h) (agonist RL); format: binding; settings: read-out: 5-HT2B (h) (agonist RL): % inhibition @10 µM
Chain of 5-HT2B (h) (P41595 whole entry): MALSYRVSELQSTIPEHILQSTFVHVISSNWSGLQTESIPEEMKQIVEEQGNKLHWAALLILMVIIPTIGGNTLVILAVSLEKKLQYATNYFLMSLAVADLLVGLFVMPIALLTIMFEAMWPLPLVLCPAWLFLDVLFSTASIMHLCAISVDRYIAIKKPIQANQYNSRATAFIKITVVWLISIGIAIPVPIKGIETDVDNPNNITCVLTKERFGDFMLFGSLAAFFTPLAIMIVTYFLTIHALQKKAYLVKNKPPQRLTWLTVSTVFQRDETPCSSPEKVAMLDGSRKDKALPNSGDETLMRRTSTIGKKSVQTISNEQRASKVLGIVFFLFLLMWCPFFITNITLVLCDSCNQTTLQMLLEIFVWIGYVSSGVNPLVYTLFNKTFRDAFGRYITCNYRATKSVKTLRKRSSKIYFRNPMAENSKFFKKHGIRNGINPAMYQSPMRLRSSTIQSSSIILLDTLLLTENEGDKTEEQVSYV
Text: (§1) Cosmetics Europe’s Systemic Toxicity Taskforce (SysTox-TF) has extended the list of targets in an in vitro screen originally described by [Bowes et al. (2012)] to assess the effects of cosmetic chemicals on target molecules. The approach was based on the knowledge that various targets of pharmacological interest have been linked to human adverse drug reactions, and that screening of these has helped the pharma industry in identifying drug candidates with acceptable human safety profiles ([Bowes et al., 2012]; [Scott et al., 2022]). The methods used by the pharma industry were adapted for use in cosmetic chemical NGRA. A final list of 83 target assays were considered suitable for cosmetic chemical safety testing (see Supplementary Materials S1.7). The targets were receptors, ion channels, transporters and enzymes identified by the pharma industry as linked to human adverse drug reactions, supplemented by additional targets that have been reasoned to be linked to systemic toxicities of chemicals in animals. Chemicals that are flagged for a target are tested in follow-up dose-response assays to establish potency of the interaction. […]. [Valentin et al., 2018]; [Dodson et al., 2021]). […].
(§2) assay’s reference compound was set to 100%. For antagonist assays, the basal signal (exposure to fixed concentration of agonist only) was set to 100%. Activity of the samples was scaled accordingly, […]
(§3) Using these graphs, lowest […]
(§4) compound activity for antagonist assays.
(§5) S1.7. Pharmacology profiling assays […]
(§6) reasoned to link to pathological effects. […]
(§7) around the control level. […]
(§8) determine the potency (IC50).
(§9) Supplementary Table S4 Pharmacology profiling assay panel. […]

Adenosine A2A (h) = Adenosine A2A (h) (Homo sapiens, UniProt P29274); assay: Pharmacology profiling: Adenosine A2A (h) (agonist RL); format: binding; settings: read-out: Adenosine A2A (h) (agonist RL): % inhibition @10 µM
Chain of Adenosine A2A (h) (P29274 whole entry): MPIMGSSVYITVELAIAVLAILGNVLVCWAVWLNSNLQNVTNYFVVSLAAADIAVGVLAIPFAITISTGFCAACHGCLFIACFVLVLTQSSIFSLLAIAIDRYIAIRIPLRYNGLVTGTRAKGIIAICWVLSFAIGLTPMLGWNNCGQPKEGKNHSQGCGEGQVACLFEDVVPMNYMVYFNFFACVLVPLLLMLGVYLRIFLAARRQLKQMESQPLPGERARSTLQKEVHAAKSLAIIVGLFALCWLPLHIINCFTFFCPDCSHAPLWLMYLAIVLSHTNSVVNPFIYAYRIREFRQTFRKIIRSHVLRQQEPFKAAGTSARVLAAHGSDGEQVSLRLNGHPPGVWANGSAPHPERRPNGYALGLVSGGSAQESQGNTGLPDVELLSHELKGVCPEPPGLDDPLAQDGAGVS
Text: as §1, §2, §3, §4, §5, §6, §7, §8, §9

COX1 (h) = COX1 (h) (Homo sapiens, UniProt P23219); assay: Pharmacology profiling: COX1 (h); format: biochemical; settings: read-out: COX1 (h): % inhibition @10 µM
Chain of COX1 (h) (P23219 24-599): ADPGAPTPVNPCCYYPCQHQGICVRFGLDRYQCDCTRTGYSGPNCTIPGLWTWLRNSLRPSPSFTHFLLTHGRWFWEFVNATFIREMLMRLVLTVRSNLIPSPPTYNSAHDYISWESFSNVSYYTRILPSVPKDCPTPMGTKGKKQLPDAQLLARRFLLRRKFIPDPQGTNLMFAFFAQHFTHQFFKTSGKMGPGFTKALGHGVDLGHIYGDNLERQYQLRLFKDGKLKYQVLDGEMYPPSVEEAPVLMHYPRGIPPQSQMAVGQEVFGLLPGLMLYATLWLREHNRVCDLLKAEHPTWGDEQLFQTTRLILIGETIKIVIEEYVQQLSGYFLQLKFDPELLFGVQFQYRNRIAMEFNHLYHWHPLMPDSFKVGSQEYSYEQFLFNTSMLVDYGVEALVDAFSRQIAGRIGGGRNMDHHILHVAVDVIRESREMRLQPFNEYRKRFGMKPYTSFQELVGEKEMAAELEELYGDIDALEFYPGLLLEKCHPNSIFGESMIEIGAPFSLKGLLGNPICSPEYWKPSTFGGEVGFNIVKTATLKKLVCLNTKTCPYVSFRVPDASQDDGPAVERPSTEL
Text: as §10, §11
reasoned to link to pathological effects. Results showing an inhibition or stimulation higher than 50%
as §12
and 50% are indicative of weak to moderate effects and results showing an inhibition (or stimulation)
as §13, §14

[1] = format: in vitro ADME; settings: human, 24 h
Text: Additional information was required to determine whether an adjustment factor was needed to account for a difference in the absorption of daidzein after topical application and whether the absorption was impacted by the use of the intended (body lotion base) formulation. […]. […] […]. The results of this study are described in detail by [Géniès et al. (2024)] and are summarized here.

[2] = for BER, Cmax, total CI5%: PoD 10 nM
Text: For human exposure, the aim is to estimate a safe dose when used in a body lotion or face cream. […] Therefore, metabolism was considered by incorporating a model to characterize the rate of metabolism and then fitted it to the metabolism measured in ex vivo viable skin.
An additional safety factor of 3.3 was applied to account for intra-individual variability.

U2-OS cells = settings: human, 24 h
Description: using the U2-OS based CALUX cytotox bioassay. The cytotoxicity of each test chemical was assessed using the U2-OS based cytotoxicity CALUX bioassay. Concentrations causing >20% reduction of luminescence were considered cytotoxic.
cytotoxicity (relative induction in the cytotoxicity CALUX bioassay > 80%) were used for final
evaluation of analysis results.
induction in the cytotox CALUX bioassay > 80%) were used for final evaluation of analysis results.
All analysis results were expressed in molar (M) final in well.
For the analyses in the presence of rat liver S9, 0.03% (v/v) of PB/BNF induced rat liver
S9 mix (including NADPH and an NADPH-regenerating system) was added to the cells directly after
addition of the compounds, which remained there for the duration of the exposure period (24 h) (van

ER = tested on: ER; design: method as in Opera; settings: experimental call listed in the Opera output; ref Opera; cited from earlier work
Estrogen pathway = tested on: Estrogen pathway; design: method as in ToxCast; settings: ref ToxCast, cited from earlier work; for Estrogen pathway: Cell Proliferation, Call: key: Pos = positive result; Neg = negative result; Inc = uncertain/inconclusive result; for Estrogen pathway: Dimerization, Call: key: Pos = positive result; Neg = negative result; Inc = uncertain/inconclusive result; for Estrogen pathway: Receptor binding, Call: key: Pos = positive result; Neg = negative result; Inc = uncertain/inconclusive result
Androgen pathway = tested on: Androgen pathway; design: method as in ToxCast; settings: ref ToxCast, cited from earlier work
Aromatase = tested on: Aromatase; design: method as in ToxCast; settings: ref ToxCast; cited from earlier work; note: key: Pos = positive result; Neg = negative result; Inc = uncertain/inconclusive result

SMILES: O=c1c(-c2ccc(O)cc2)coc2cc(O)ccc12 [Daidzein, DAIDZEIN]
- Apoptosis & necrosis: cell membrane permeability: Effect (HepG2 cells): decrease
- AC50 (HepG2 cells; read-out: Apoptosis & necrosis: caspase 3/7: AC50): > 100 µM
- AC50 (HepG2 cells; read-out: Apoptosis & necrosis: cell membrane permeability: AC50): > 100 µM
- AC50 (HepG2 cells; read-out: Cellular ATP: AC50): > 100 µM
- AC50 (HepG2 cells; read-out: ER stress panel 1: ER integrity: AC50): > 100 µM
- AC50 (HepG2 cells; read-out: Inflammation & pH: HIF1α: AC50): > 100 µM
- AC50 (HepG2 cells; read-out: Inflammation & pH: intracellular pH: AC50): > 100 µM
- AC50 (HepG2 cells; read-out: Mitochondrial mass: AC50): > 100 µM
- AC50 (HepG2 cells; read-out: Mitochondrial membrane potential: AC50): 55.3 µM
- AC50 (HepG2 cells; read-out: Nuclear size: AC50): > 100 µM
- AC50 (HepG2 cells; read-out: Osmotic & heat shock: NFAT: AC50): > 100 µM
- AC50 (HepG2 cells; read-out: Osmotic & heat shock: hsp70: AC50): > 25 µM
- AC50 (HepG2 cells; read-out: Oxidative stress: HMOX1: AC50): 77.6 µM
- AC50 (HepG2 cells; read-out: Oxidative stress: NRF2: AC50): > 100 µM
- Apoptosis & necrosis: caspase 3/7: MEC (HepG2 cells; human, 24 h): 36.9 µM
- Apoptosis & necrosis: cell membrane permeability: MEC (HepG2 cells; human, 24 h): 51.5 µM
- Cell stress LOEC, ↓ in mitochondrial membrane potential (HepG2 cells; human, 24 h): 10.8 µM
- Cellular ATP: MEC (HepG2 cells; human, 24 h): 89.4 µM
- ER stress panel 1: ER integrity: MEC (HepG2 cells; human, 24 h): 82.6 µM
- Inflammation & pH: HIF1α: MEC (HepG2 cells; human, 24 h): 32.3 µM
- Inflammation & pH: intracellular pH: MEC (HepG2 cells; human, 24 h): 26.3 µM
- Mitochondrial mass: MEC (HepG2 cells; human, 24 h): 25.9 µM
- Mitochondrial membrane potential: MEC (HepG2 cells; human, 24 h): 10.8 µM
- Nuclear size: MEC (HepG2 cells; human, 24 h): 69.2 µM
- Osmotic & heat shock: NFAT: MEC (HepG2 cells; human, 24 h): 25.0 µM
- Osmotic & heat shock: hsp70: MEC (HepG2 cells; human, 24 h): 3.3 µM
- Oxidative stress: HMOX1: MEC (HepG2 cells; human, 24 h): 44 µM
- Oxidative stress: NRF2: MEC (HepG2 cells; human, 24 h): 30.4 µM
- Phospholipidosis: MEC (HepG2 cells; human, 24 h): 14.2 µM
- Steatosis: MEC (HepG2 cells; human, 24 h): 77.4 µM
- ERβ LOEC (binding to receptor) (ERβ Human Estrogen NHR; pharmacology profiling, LOEC = 10% of maximum reference compound activity): 3.25 nM and 3.2 nM
- inhibition at 10 µM (ERβ Human Estrogen NHR; read-out: ERβ Human Estrogen NHR Binding (Agonist): % inhibition @10 µM): 100%
- inhibition at 10 µM (5-HT2B (h)): 44.1%
- inhibition at 10 µM (Adenosine A2A (h)): 20.5%
- inhibition at 10 µM (COX1 (h)): 44.7%
- Metabolized in the skin after 24 h [1]: 55%
- BERs derived using unbound plasma concentrations ([2]; 0.02% daidzein): 100–250
- BER, Cmax, total CI5% ([2]; body lotion with 0.02% daidzein): 10/0.68 = 14.7
- BER, Cmax, total CI5% ([2]; body lotion with 0.1% daidzein): 10/3.37 = 3.0
- Cytotoxicity LOEC, +S9 (U2-OS cells): >−5 Log M
- Cytotoxicity LOEC, −S9 (U2-OS cells): >−5 Log M
- ER agonist, Experimental (ER): Active (medium)
- ER binding, Experimental (ER): Active (weak)
- Estrogen pathway: Cell Proliferation, Call (Estrogen pathway): Pos
- Estrogen pathway: Dimerization, Call (Estrogen pathway): Pos
- Estrogen pathway: Receptor binding, Call (Estrogen pathway): Pos
- Estrogen pathway: Reporter protein Agonist, Call (Estrogen pathway): Pos
- Estrogen pathway: Reporter protein Antagonist, Call (Estrogen pathway): Neg
- Estrogen pathway: mRNA induction, Call (Estrogen pathway): Pos
- AC50 (Estrogen pathway; read-out: Estrogen pathway: Cell Proliferation, AC50): 0.15 µM
- AC50 (Estrogen pathway; read-out: Estrogen pathway: Dimerization, AC50): 0.77 µM
- AC50 (Estrogen pathway; read-out: Estrogen pathway: Receptor binding, AC50): 0.17 µM
- AC50 (Estrogen pathway; read-out: Estrogen pathway: Reporter protein Agonist, AC50): 1.68 µM
- AC50 (Estrogen pathway; read-out: Estrogen pathway: mRNA induction, AC50): 0.15 µM
- Androgen pathway: Cell Proliferation, Call (Androgen pathway): Neg
- Androgen pathway: Dimerization, Call (Androgen pathway): Neg
- Androgen pathway: Receptor binding, Call (Androgen pathway): Neg
- Androgen pathway: Reporter protein Agonist, Call (Androgen pathway): Neg
- Androgen pathway: Reporter protein Antagonist, Call (Androgen pathway): Inc
- Androgen pathway: mRNA induction, Call (Androgen pathway): Neg
- AC50 (Androgen pathway; read-out: Androgen pathway: Reporter protein Antagonist, AC50): 36.1 µM
- Steroidogenesis: Aromatase, Call (Aromatase): Neg
